{
  "source": "patent US20220133747A1",
  "about": "“ESTROGEN RECEPTOR INHIBITORS AND USES THEROF” (The Regents of the University of California, priority 2018, published 2022)",
  "key": {"[1]": {"tested_on": "immune cell subsets in 4T1 tumors", "test": "Mass cytometry (CyTOF) of immune cell subsets in 4T1 tumors", "type": "in vivo, BALB/c mice", "procedure": "Single cell suspensions were prepared from 4T1 tumors grown in BALC/c mice treated for 12 days with control (CON), 100 μg of anti-PD-L1 antibody Q3 days (PD-L1), 50 mg/kg SERD128 via oral gavage (SERD128) or combined (PD-L1+SERD128). Cells were labeled with specific antibodies and analyzed by mass cytometry (cyTOF).\nCells were labeled with specific antibodies and analyzed by mass cytometry (CyTOF).\nTumors from each mouse were harvested after 10-12 days of treatment as described above. Single cell suspensions were generated from tumors using the MACS mouse tumor dissociation kit (Miltenyi Biotech Cat. 130-096-730) following manufacturer's instructions. One million cells per tumor were resuspended in PBS and labeled with Cell-ID Cisplatin (Fluidigm, Cat. 201064) to assess for live/dead cells. For antibody labeling, we used the recommended cell surface staining procedure (Fluidigm) followed by the FoxP3/Transcription Staining Buffer Set protocol (eBiosciences™). Cells were labeled with a panel of 28 metal-conjugated antibodies to determine different immune lineages in addition to memory, trafficking, activation, and exhaustion markers (see Tables 2-3 for list of antibodies). After washing and centrifugation, cells were fixed using MaxPar Fix and Perm buffer (Fluidigm, Cat. 201067) and labelled for single cell discrimination with Cell-ID Intercalator-Ir (Fluidigm, Cat. 201192A). Samples were resuspended with 10% EQ four-element calibration beads (Fluidigm, Cat. 201078), and filtered through a 40 μm mesh filter prior to acquisition on a HELIOS' mass cytometer (Fluidigm), at a rate of 300-500 events/s.\nCollected mass cytometry data was analyzed as previously described. Briefly, samples were normalized utilizing a bead standard. First, each cytometry file was processed in FLOWJO (v10.3), then manually gated for stability of signal over time, followed by exclusion of normalization beads, ratio of DNA intercalators (191Ir+vs 193Ir+), with finally single cell events (Ir193 vs event length) (FIG. 24A). After that, viable (195Pt−)CD45+ events were exported and uploaded into the X-shift (VorteX) clustering environment to obtain the k-nearest-neighbor density estimation as described before. Dimensionality reduction of unclustered data was performed using the t-stochastic neighborhood embedding (t-SNE) and PhenoGraph algorithms implemented in the Cytofkit library, supplied by BIOCONDUCTOR v.3.4 and run in RSTUDIO v.1.1.463. A fixed number of 10,000 cells were sampled without replacement from each file and combined for analysis. Resulting t-SNE plots were subsequently filtered by marker expression to visualize differences between different treatment groups. Heatmaps were generated using Z-scores based on median marker expression (excel and Prism v7)."}, "[2]": {"tested_on": "myeloid-derived suppressor cells (MDSC)", "test": "Expansion of human MDSC from bone marrow of BC patients, flow cytometry", "type": "cell-based", "conditions": "1 μM in normal medium with GM-CSF and IL-6, 5-6 days", "excerpt": "Bone Marrow cells from three breast cancer patients were purified by established methods including red blood cell lysis and Ficoll gradients (1-3,5, 5-7) and then cultured in the presence of IL-6 and GM-CSF in either estrogen-free medium (EFM), normal medium with control vehicle (NM) (which contains estrogens), normal medium with 1-μM fulvestrant (NM+FULV) or normal medium with 1-μM S128 (NM+S128). After 5 days, myeloid-derived cell populations were then identified by following the gating strategy of Ruffell et al. (2) as modified by Svoronos et al. (1). A) Percentage of total MDSC within CD45^+ population.\nTotal number of human MDSC derived from bone marrow (BM) of three of three BC patients (P<0.05). Cells were incubated in the presence of GM-CSF and IL-6 for 6 days in either regular RPMI medium+15% FBS (NM) (contains estrogens) or in phenol red-free medium with 15% charcoal coated-dextran treated FBS (EFM)(estrogen-depleted) with or without the addition of 100 nM estradiol-17β (EFM+E2). Normal cell culture medium (NM) drives E2-dependent signaling due to the presence of various estrogens in FBS as well as the estrogenic properties of phenol red. These effects were inhibited by the SERDs fulvestrant (FULV) and S128 at 1 μM\nFIGS. 22A-22B show expansion of MDSCs is dependent on estrogen signaling and reversed by antiestrogens. […]\nHuman myeloid-derived suppressor cells were expanded from bone marrow (BM) specimens of BC patients after standard Ficoll gradient purification and red blood cell lysis. […] After 6 days of culture, cells were harvested, stained with a 14 antibody panel including anti-phospho-STAT3 (pSTAT3) and analyzed by flow cytometry with an LSRII with a 5 lasers (UV, violet, blue, green-yellow and red). […]"}},
  "note": "“Also recorded” adds a separate entry of the source. Like-named read-outs stand apart in the source and are kept apart here.",
  "data": [
    {"compound": "C[C@]12CC[C@@H]3c4ccc(O)cc4C[C@@H](CCCCCCCCC[S+]([O-])CCCC(F)(F)C(F)(F)F)[C@H]3[C@@H]1CC[C@@H]2O", "note": "(some centres unmarked) [fulvestrant, reference compound]", "values": [
      {"measurement": "total dendritic cells (CD11c+MHCII+)", "setting": "[1]", "value": "increased the population of DCs in 4T1 tumors"},
      {"measurement": "total MDSC numbers (expansion of MDSC)", "setting": "[2]", "value": "substantially decreased; also recorded: significantly inhibited; also recorded: block E2-induced expansion of MDSCs"}
    ]},
    {"compound": "C[C@]12C[C@H](Oc3ccc(N)c(C(F)(F)F)c3)[C@@H]3c4ccc(O)cc4CC[C@H]3[C@@H]1CC[C@@H]2O", "note": "[SERD128, (8S,9S,11S,13S,14S,17S)-11-(4-Amino-3-(trifluoromethyl)phenoxy)-13-methyl-7,8,9,11,12,13,14,15,16,17-decahydro-6H-cyclopenta[a]phenanthrene-3,17-diol]", "values": [
      {"measurement": "B regulatory cells (CD19+ CD25+ CD69+, gated on CD19+)", "setting": "[1]", "value": "decreases expression of B regulatory cells; also recorded: decrease expression of this subpopulation"},
      {"measurement": "M1 macrophages (MHCII high)", "setting": "[1]", "value": "increase in the M1 tumoricidal population of macrophages; also recorded: increases the ER+M1-tumoricidal subset of macrophages"},
      {"measurement": "M2 macrophages (MHCII low)", "setting": "[1]", "value": "notable decrease in the M2 phenotype; also recorded: reduces the M2-phenotype"},
      {"measurement": "markers of CD8+ TIL activation and/or proliferation", "setting": "[1]", "value": "promotes enhanced proliferation and activation of CD8^+ T-cells"},
      {"measurement": "stimulatory/myeloid dendritic cells (mDCs)", "setting": "[1]", "value": "increase expression of total dendritic cells (DC) and their stimulatory/myeloid subgroup; also recorded: increased population of mDCs"},
      {"measurement": "total dendritic cells (CD11c+MHCII+)", "setting": "[1]", "value": "increase expression of total dendritic cells; also recorded: increased population of mDCs in 4T1 tumors as well as the total population of DCs"},
      {"measurement": "markers of CD8+ TIL activation and/or proliferation", "setting": "[1]; listed as S128", "value": "increased"},
      {"measurement": "total MDSC numbers (expansion of MDSC)", "setting": "[2]", "value": "significantly inhibited; also recorded: inhibits expansion and activation; also recorded: block E2-induced expansion of MDSCs; also recorded: exceeds that of fulvestrant at equivalent doses"},
      {"measurement": "total MDSC numbers (expansion of MDSC)", "setting": "[2]; listed as S128", "value": "substantially decreased; also recorded: inhibited; also recorded: inhibits E2-induced expansion of MDSC"}
    ]}
  ]
}
